Test results: paper PMC10424673 (Journal of Medicinal Chemistry, 2023)
Where a SMILES comes first, the peptide text is derived from it. [ ]: non-standard residue; d: D form. The star is where a group is joined. NHNH2 = NN*

Tests used:
[1] = molecular target: T1, GLP-2R (Homo sapiens, UniProt O95838); parameters: method as in PMID 36780786; settings: cited from earlier work
T1 construct: host or cells: CHO-K1 PathHunter reporter cells

[2] = molecular target: T1, GLP-2R; parameters: method as in 2 sources, one per row (each row's own in cited_ref): ref 28 (Gadgaard et al.) ||| ref 28 = [28]; PMID 36780786; doi:10.1016/j.biopha.2023.114383; Gadgaard S.; Windeløv J. A.; Schiellerup S. P.; Holst J. J.; Hartmann B.; Rosenkilde M. M. Long-Acting Agonists of Human and Rodent Glp-2 Receptors for Studies of the Physiology and Pharmacologic; settings: cited from earlier work
[3] = tested on: GFP under CREB in HEK293 cells stably expressing hGLP-2R; test: Western blot of GFP expression under control of CREB in HEK293 cells stably expressing hGLP-2R; type: cell-based, human; settings: 10 μM peptide, after 36 hours of incubation, mean ± sd, n = 3
Source text: We then investigated the downstream effects of stimulating GLP-2R with the D-GLP-2 analogues to study the D-peptide designs’ effects on GLP-2R. We wanted to determine whether activating GLP-2R with D-GLP-2 analogues would promote GFP expression in HEK293 cells containing a GFP gene under the control of cAMP response element binding protein (CREB) and AKT phosphorylation. We also checked the beta-actin expression in all the treatments as loading controls. Of relevance, all peptides induced a similar GFP expression under the CREB, reaching saturation between 24 and 48 h of incubation (Figures 5E,F, S1A, Table S3). We also found a concentration-dependent increase in GFP expression in response to all the peptides’ stimulation (Figure S1B).
The cells were lysed with a lysis buffer 50 mM Tris-HCl pH 7.4, 1% Nonidet P-40, 150 mM NaCl, 1 mM ethylenediaminetetraacetic acid, 10 mM Na3VO4, 10 mM sodium pyrophosphate, and 25 mM NaF, 1× protease inhibitor mixture (Sigma) for 30 min at 4 °C. […] The transferred samples were immunoblotted with primary antibodies, followed by incubation with horseradish peroxidase-conjugated secondary antibodies (Santa Cruz Biotechnology) and detected using enhanced chemiluminescence (GE Healthcare).

[4] = molecular target: T2, hGLP-2R (Homo sapiens, UniProt O95838); test: HTRF cAMP assay in GLP-2R-expressing HEK293 cells; type: cell-based
T2 construct: expressed in transfected cells
T2 sequence (O95838 1-553): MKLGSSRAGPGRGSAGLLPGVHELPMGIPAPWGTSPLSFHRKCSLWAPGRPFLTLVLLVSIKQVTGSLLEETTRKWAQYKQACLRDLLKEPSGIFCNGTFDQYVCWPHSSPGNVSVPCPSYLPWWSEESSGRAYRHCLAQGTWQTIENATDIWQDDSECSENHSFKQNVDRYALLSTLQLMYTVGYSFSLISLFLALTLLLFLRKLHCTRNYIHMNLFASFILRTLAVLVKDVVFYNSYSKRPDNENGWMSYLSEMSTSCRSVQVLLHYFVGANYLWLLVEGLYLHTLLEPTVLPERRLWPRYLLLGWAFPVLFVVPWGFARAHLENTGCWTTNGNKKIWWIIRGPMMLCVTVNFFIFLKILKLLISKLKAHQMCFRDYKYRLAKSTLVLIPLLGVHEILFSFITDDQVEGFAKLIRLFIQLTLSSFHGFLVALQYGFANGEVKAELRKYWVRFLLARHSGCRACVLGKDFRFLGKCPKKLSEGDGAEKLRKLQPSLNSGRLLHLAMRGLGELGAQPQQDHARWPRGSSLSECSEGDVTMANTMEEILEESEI

[5] = molecular target: DPP-IV (Homo sapiens, UniProt P27487); settings: 20 μM peptide, DPP-IV 50 μg/mL, 100 mM Tris pH 8.0, 2.5 h, SDS-PAGE densitometry and mass spectrometry
Sequence of DPP-IV (P27487 whole entry, species assumed): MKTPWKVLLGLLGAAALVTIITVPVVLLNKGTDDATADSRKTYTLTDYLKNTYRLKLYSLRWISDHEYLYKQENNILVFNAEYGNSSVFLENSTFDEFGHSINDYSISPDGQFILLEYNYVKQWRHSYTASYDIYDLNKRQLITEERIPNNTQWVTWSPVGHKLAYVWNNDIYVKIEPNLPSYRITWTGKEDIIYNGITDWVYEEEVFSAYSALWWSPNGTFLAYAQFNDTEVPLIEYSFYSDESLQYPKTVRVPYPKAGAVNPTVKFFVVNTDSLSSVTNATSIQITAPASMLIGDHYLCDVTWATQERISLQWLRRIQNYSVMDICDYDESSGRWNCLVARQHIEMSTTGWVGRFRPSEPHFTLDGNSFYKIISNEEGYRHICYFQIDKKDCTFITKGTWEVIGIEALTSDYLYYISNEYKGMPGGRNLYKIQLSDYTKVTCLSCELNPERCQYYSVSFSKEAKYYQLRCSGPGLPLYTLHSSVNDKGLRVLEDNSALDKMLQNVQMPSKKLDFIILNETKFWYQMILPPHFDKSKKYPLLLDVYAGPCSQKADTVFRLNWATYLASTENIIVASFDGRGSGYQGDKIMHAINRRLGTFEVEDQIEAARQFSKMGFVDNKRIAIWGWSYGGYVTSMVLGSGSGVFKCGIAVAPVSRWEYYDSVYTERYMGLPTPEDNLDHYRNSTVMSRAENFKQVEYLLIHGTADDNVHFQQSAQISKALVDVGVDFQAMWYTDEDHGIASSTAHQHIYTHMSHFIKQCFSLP

[6] = molecular target: proteinase K (Parengyodontium album, UniProt P06873); settings: 20 μM peptide, ProtK 100 μg/mL, 10 mM Tris-base, 10 mM NaCl, pH 7.4, 5 μM CaCl2, 37 °C, SDS-PAGE Coomassie densitometry normalised to T0, repeated three times
Sequence of proteinase K (P06873 106-384): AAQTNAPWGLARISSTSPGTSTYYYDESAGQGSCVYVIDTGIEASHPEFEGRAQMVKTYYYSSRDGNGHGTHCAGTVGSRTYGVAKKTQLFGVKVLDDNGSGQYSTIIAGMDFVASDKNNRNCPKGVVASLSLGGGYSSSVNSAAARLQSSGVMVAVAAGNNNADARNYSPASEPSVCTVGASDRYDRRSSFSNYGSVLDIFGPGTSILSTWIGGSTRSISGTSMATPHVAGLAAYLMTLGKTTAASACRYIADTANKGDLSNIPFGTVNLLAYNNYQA

T1 sequence (P32121 whole entry partner, one chain of several): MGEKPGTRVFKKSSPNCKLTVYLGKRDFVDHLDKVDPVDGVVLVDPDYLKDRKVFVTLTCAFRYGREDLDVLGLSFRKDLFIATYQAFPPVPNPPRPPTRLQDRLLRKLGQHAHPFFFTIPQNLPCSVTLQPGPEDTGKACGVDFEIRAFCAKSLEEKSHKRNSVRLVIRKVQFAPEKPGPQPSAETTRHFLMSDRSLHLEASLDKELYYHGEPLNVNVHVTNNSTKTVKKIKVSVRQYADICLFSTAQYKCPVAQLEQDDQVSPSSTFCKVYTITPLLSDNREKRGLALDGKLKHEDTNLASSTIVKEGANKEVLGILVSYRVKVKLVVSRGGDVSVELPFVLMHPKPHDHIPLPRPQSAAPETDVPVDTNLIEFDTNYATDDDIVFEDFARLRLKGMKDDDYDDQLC

GLP-2_3–33: the product of DPP-IV inactivation of GLP-2_1–33 (DGSFSDEMNTILDNLAARDFINWLIQTKITD; Glucagon-like peptide 2; UniProt P01275 148-178, looked up, fragment)
β-arrestin 1 and 2 recruitment [1]: could not recruit β-arrestin 1 and 2 | mode of action at GLP-2R [2]: competitive antagonist of GLP-2_1–33 | efficacy at GLP-2R ([2]; ref 28 (Gadgaard et al.)): 11%

CC[C@@H](C)[C@@H](NC(C)=O)C(=O)N[C@H](CCCCN)C(=O)N[C@H](C)C(=O)N[C@H](CCC(N)=O)C(=O)N[C@H](Cc1c[nH]c2ccccc12)C(=O)N[C@H](CC(C)C)C(=O)N[C@H](C)C(=O)N[C@H](C)C(=O)N[C@H](CCC(=O)O)C(=O)N[C@H](Cc1ccccc1)C(=O)N[C@@H](C(=O)N[C@H](CCC(N)=O)C(=O)N[C@H](C)C(=O)N[C@@H](C(=O)N[C@H](C)C(=O)N[C@H](C)C(=O)N[C@@H](C(=O)N[C@H](CC(C)C)C(=O)N[C@H](C)C(=O)N[C@H](CCSC)C(=O)N[C@H](CC(C)C)C(=O)N[C@H](CCCNC(=N)N)C(=O)N[C@H](CC(N)=O)C(=O)N[C@H](CC(N)=O)C(=O)N[C@H](CCC(N)=O)C(=O)N[C@H](Cc1ccccc1)C(=O)N[C@H](CCC(=O)O)C(=O)N[C@H](Cc1ccccc1)C(=O)N[C@H](C)C(=O)NCC(=O)N[C@@H](C(=O)N[C@H](C)C(=O)N[C@H](Cc1c[nH]cn1)C(=O)NN)C(C)C)C(C)C)C(C)C)[C@H](C)CC [D-GLP-2 E33A hydrazide] (Ac-[dI][dK][dA][dQ][dW][dL][dA][dA][dE][dF][dI][dQ][dA][dV][dA][dA][dV][dL][dA][dM][dL][dR][dN][dN][dQ][dF][dE][dF][dA]G[dV][dA][dH]-NHNH2)
GFP relative expression level, relative to L-GLP-2-treated cells [3]: 1.08 ± 0.14 | EC50 [4]: 226 nM | improvement of GLP-2R activation compared to D-GLP-2 ([4]; ratio of cAMP EC50 values, compared to D-GLP-2): 6.26 fold

CC[C@H](C)[C@H](NC(=O)[C@H](Cc1ccccc1)NC(=O)[C@H](CC(=O)O)NC(=O)[C@H](CCCNC(=N)N)NC(=O)[C@H](C)NC(=O)[C@H](C)NC(=O)[C@H](CC(C)C)NC(=O)[C@H](CC(N)=O)NC(=O)[C@H](CC(=O)O)NC(=O)[C@H](CC(C)C)NC(=O)[C@@H](NC(=O)[C@@H](NC(=O)[C@H](CC(N)=O)NC(=O)[C@H](CCSC)NC(=O)[C@H](CCC(=O)O)NC(=O)[C@H](CC(=O)O)NC(=O)[C@H](CO)NC(=O)[C@H](Cc1ccccc1)NC(=O)[C@H](CO)NC(=O)CNC(=O)[C@H](CC(=O)O)NC(=O)CNC(=O)[C@@H](N)Cc1c[nH]cn1)[C@@H](C)O)[C@@H](C)CC)C(=O)N[C@@H](CC(N)=O)C(=O)N[C@@H](Cc1c[nH]c2ccccc12)C(=O)N[C@@H](CC(C)C)C(=O)N[C@H](C(=O)N[C@@H](CCC(N)=O)C(=O)N[C@H](C(=O)N[C@@H](CCCCN)C(=O)N[C@H](C(=O)N[C@H](C(=O)N[C@@H](CC(=O)O)C(=O)O)[C@@H](C)O)[C@@H](C)CC)[C@@H](C)O)[C@@H](C)CC [L-GLP-2-2G]
peptide remaining after incubation with DPP-IV [5]: remained intact | peptide remaining after proteinase K exposure, 2 h [6]: almost complete loss

CC[C@@H](C)[C@@H](NC(C)=O)C(=O)N[C@H](CCCCN)C(=O)N[C@H](C)C(=O)N[C@H](CCC(N)=O)C(=O)N[C@H](Cc1c[nH]c2ccccc12)C(=O)N[C@H](CC(C)C)C(=O)N[C@H](C)C(=O)N[C@H](C)C(=O)N[C@H](CCC(=O)O)C(=O)N[C@H](Cc1ccccc1)C(=O)N[C@@H](C(=O)N[C@H](CCC(N)=O)C(=O)N[C@H](C)C(=O)N[C@@H](C(=O)N[C@H](C)C(=O)N[C@H](C)C(=O)N[C@@H](C(=O)N[C@H](CC(C)C)C(=O)N[C@H](C)C(=O)N[C@H](CCSC)C(=O)N[C@H](CC(C)C)C(=O)N[C@H](CCCNC(=N)N)C(=O)N[C@H](CC(N)=O)C(=O)N[C@H](CC(N)=O)C(=O)N[C@H](CCC(N)=O)C(=O)N[C@H](Cc1ccccc1)C(=O)N[C@H](CCC(=O)O)C(=O)N[C@H](Cc1ccccc1)C(=O)N[C@H](C)C(=O)NCC(=O)N[C@@H](C(=O)N[C@H](CCC(=O)O)C(=O)N[C@H](Cc1c[nH]cn1)C(N)=O)C(C)C)C(C)C)C(C)C)[C@H](C)CC [D-GLP-2] (Ac-[dI][dK][dA][dQ][dW][dL][dA][dA][dE][dF][dI][dQ][dA][dV][dA][dA][dV][dL][dA][dM][dL][dR][dN][dN][dQ][dF][dE][dF][dA]G[dV][dE][dH]-NH2)
EC50 [4]: 1420 nM | times less potent (weaker EC50) than native L-GLP-2 ([4]; ratio of cAMP EC50 to that of GLP-2): 35 times
